What is called IC50 is the concentration needed to halve the response being measured. Low values mean greater potency in that assay, high ones weaker potency in that assay.

Molecules are shown by their SMILES.

The target in the assay is T1, CDK1/CycB (Homo sapiens, UniProt P06493).
T1 construct: GST; purchased ProQinase GmbH, Freiburg; host or cells: baculovirus-infected insect cells (Sf9)
T1 sequence (P06493 whole entry): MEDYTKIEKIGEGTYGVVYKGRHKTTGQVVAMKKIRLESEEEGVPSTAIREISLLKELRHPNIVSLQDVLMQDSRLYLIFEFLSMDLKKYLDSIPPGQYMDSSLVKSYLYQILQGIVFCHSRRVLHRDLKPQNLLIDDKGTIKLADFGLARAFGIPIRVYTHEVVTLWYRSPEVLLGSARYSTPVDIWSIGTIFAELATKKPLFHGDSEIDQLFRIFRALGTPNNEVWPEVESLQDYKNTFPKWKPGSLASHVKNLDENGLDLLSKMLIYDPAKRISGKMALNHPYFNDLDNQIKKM
T1 sequence (P14635 whole entry partner): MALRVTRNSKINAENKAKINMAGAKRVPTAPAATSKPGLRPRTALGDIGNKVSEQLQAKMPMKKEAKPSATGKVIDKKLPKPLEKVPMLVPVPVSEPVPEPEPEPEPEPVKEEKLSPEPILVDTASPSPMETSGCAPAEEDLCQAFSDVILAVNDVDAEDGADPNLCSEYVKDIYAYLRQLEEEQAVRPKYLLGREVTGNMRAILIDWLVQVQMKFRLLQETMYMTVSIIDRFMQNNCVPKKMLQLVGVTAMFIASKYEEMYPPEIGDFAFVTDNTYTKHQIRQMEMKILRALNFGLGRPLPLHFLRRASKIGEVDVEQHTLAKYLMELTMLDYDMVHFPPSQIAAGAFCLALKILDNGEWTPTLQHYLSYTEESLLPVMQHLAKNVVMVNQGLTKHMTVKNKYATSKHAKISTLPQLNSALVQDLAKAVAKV
As to the kind of experiment: CDK1/CycB kinase assay. It is filed as biochemical. Particulars: 0.5 μM ATP, histone IIIS, 33P filter assay. On the procedure:
Recombinant CDK1- and CycB-GST fusion proteins, purified from baculovirus-infected insect cells (Sf9), were purchased from ProQinase GmbH, Freiburg. The histone IIIS used as kinase substrate can be purchased from Sigma.
CDK1/CycB (5 ng/μL) was incubated in the presence of various concentrations of test substances (0 μM, and within the range 0.01-100 μM) in 40 μL of assay buffer [50 mM Tris/HCl pH 8.0, 10 mM MgCl2, 0.1 mM Na ortho-vanadate, 1.0 mM dithiothreitol, 0.025% PEG 20000, 0.5 μM ATP, 10 μM histone IIIIS, 0.2 μCi/measurement point ^33P-gamma ATP, 0.05% NP40, 1.25% dimethyl sulphoxide] at 22° C. for 10 min. The reaction was stopped by adding EDTA solution (250 mM, pH 8.0, 15 μl/measurement point).
15 μl of each reaction mixture were loaded onto P30 filter strips (from Wallac), and non-incorporated ^33P-ATP was removed by washing the filter strips three times in 0.5% strength phosphoric acid for 10 min each time. After the filter strips had been dried at 70° C. for 1 hour, the filter strips were covered with scintillator strips (MeltiLex™ A, from Wallac) and baked at 90° C. for 1 hour. The amount of incorporated ^33P (substrate phosphorylation) was determined by scintillation measurement in a gamma radiation counter (Wallac).
The measured data were normalized to 0% inhibition (enzyme reaction without inhibitor) and 100% inhibition (all assay components except enzyme). The IC50 values were determined by means of a 4-parameter fit using the company's own software.
`CSc1nc(Nc2ccc(Nc3ccccn3)cc2)ncc1Br` [Example 29] returned an IC50 greater than 1000 nM.
Next, `C[C@@H](O)[C@@H](C)Nc1nc(Nc2ccc(Oc3ncccn3)cc2)ncc1Br` [Example 34]: 35 nM; `C[C@@H](O)[C@@H](C)Oc1nc(Nc2ccc(Nc3nccc(N)n3)cc2)ncc1Br` [Example 16]: 23 nM.
As for `C[C@@H](O)[C@@H](C)Oc1nc(Nc2cccc(Nc3nccc(OCCO)n3)c2)ncc1Br` [Example 27], the IC50 stood at 16 nM.
With `Cc1cnc(Nc2ccc(Nc3ncc(Br)c(O[C@H](C)[C@@H](C)O)n3)cc2)nc1NCCO` [Example 19], half-maximal inhibition (IC50) was put at 51 nM.
The figure for `COc1ccnc(Nc2ccc(Nc3ncc(Br)c(O[C@H](C)[C@@H](C)O)n3)cc2)n1` [Example 22] is 130 nM.
Turning to `C[C@@H](O)[C@@H](C)Nc1nc(Nc2ccc(Sc3nncn3C)cc2)ncc1Br` [Example 39], the midpoint of inhibition, the IC50, lay at 11 nM.
The figure for `C[C@@H](O)[C@@H](C)Nc1nc(Nc2ccc(Oc3cccnc3)cc2)ncc1Br` [Example 33] is 78 nM; for `C[C@@H](O)[C@@H](C)Oc1nc(Nc2ccc(Nc3nccc(OCCO)n3)cc2)ncc1Br` [Example 8, (2R,3R)-3-(5-Bromo-2-{4-[4-(2-hydroxyethoxy)pyrimidin-2-ylamino]-phenylamino}pyrimidin-4-yloxy)butan-2-ol] it is 28 nM.
The figure for `C[C@@H](O)[C@@H](C)Oc1nc(Nc2ccc(Nc3nccc(N(C)C)n3)cc2)ncc1Br` [Example 17] is 71 nM; for `C[C@@H](O)[C@@H](C)Sc1nc(Nc2ccc(Nc3ncc(Cl)c(NCCO)n3)cc2)ncc1Br` [Example 44] it is greater than 1000 nM.
Consider `C[C@@H](O)[C@@H](C)Oc1nc(Nc2cccc(Nc3ncccn3)c2)ncc1Br` [Example 25], for which half-maximal inhibition (IC50) required 14 nM.
Regarding `C[C@@H](O)[C@@H](C)Oc1nc(Nc2ccc(Nc3ncccn3)cc2)ncc1Br` [Example 15], the IC50 turned out to be 27 nM.
Next, `C[C@@H](O)[C@@H](C)Oc1nc(Nc2ccc(Nc3nccc(NCCN(C)C)n3)cc2)ncc1Br` [Example 18]: 40 nM; `C[C@@H](O)[C@@H](C)Oc1nc(Nc2ccc(Nc3ncc(Br)cn3)cc2)ncc1Br` [Example 24]: 110 nM.
The figure for `C[C@@H](O)[C@@H](C)Oc1nc(Nc2ccc(Nc3ncc(Cl)c(NCCO)n3)cc2)ncc1Br` [Example 21] is 54 nM.

The values are drawn from US20080176866A1, “NOVEL HETARYL-PHENYLENEDIAMINE-PYRIMIDINES AS PROTEIN KINASE INHIBITORS” (priority 2006, published 2008).
